Publication PMC4476799, “Englerin A Agonizes the TRPC4/C5 Cation Channels to Inhibit Tumor Cell Line Proliferation” (PLoS ONE, 2015)
Like-named read-outs stand apart in the source and are kept apart here.

System: cancer cell lines from the cancer cell line encyclopedia (CCLE)
Assay: Cell line profiling (CLiP) proliferation experiment
Type: cell-based
Conditions: Homo sapiens; for EC50: read-out: Inflection Point; for IC50: read-out: Crossing Point
Description: Compound profiling experiment and data analysis was performed as previously described. Data was imported and plotted using the Tibco Spotfire DXP application. Lines were categorized as sensitive, intermediate and refractory as follows: Amax<-40 & Inflection Point <2 ~ Sensitive, Amax>-20 & Inflection Point >10 ~ Refractory, all else were called Intermediate. Cancer Cell line HG-U133 Plus 2 data was processed and normalized as described. […] Five sets of refractory cell lines were generated from the pool of refractory cell lines trying to match the lineage composition of the set of sensitive cell lines. The limma package was used as previously described to perform the statistical comparison.

[1] = MKN-74, cell line MKN74 (stomach)
[2] = MM1.S, cell line MM1-S (haematopoietic_and_lymphoid_tissue)
[3] = MOLM-13, cell line MOLM-13 (haematopoietic_and_lymphoid_tissue)
[4] = MOLP-8, cell line MOLP-8 (haematopoietic_and_lymphoid_tissue)
[5] = MOLT-16, cell line MOLT-16 (haematopoietic_and_lymphoid_tissue)
[6] = MONO-MAC-6, cell line MONO-MAC-6 (haematopoietic_and_lymphoid_tissue)
[7] = MV4-11, cell line MV-4-11 (haematopoietic_and_lymphoid_tissue)
[8] = NCI-H82, NCI-H82, lung, small_cell_carcinoma
[9] = NCI-H441, NCI-H441, lung, adenocarcinoma
[10] = NCI-H647, NCI-H647, lung, mixed_adenosquamous_carcinoma
[11] = NCI-H650, NCI-H650, lung, bronchioloalveolar_adenocarcinoma
[12] = NCI-H716, NCI-H716, large_intestine, adenocarcinoma
[13] = NCI-H810, NCI-H810, lung, large_cell_carcinoma
[14] = NCI-H1092, cell line NCI-H1092 (lung)
[15] = NCI-H1299, cell line NCI-H1299 (lung)
[16] = NCI-H1563, cell line NCI-H1563 (lung)
[17] = NCI-H1581, cell line NCI-H1581 (lung)

CC(C)[C@@]12C[C@@H](O)[C@@](C)(O1)[C@@H]1CC[C@@H](C)[C@H]1[C@@H]2OC(=O)/C=C/c1ccccc1 [Englerin B]
EC50 (MIA PaCa-2, cell line MIA PaCa-2 (pancreas)): 11.3 µM
IC50 (MKN-1, cell line MKN1 (stomach)): > 30 µM
IC50 (MKN-1, cell line MKN1): > 30 µM
IC50 (MKN-7, MKN7 (stomach)): > 30 µM
IC50 (MKN-7, cell line MKN7 (stomach)): > 30 µM
IC50 (MKN-45, MKN-45 (stomach)): > 30 µM
IC50 (MKN-45, cell line MKN-45 (stomach)): > 30 µM
IC50 [1]: 27.5 µM
EC50 [1]: 27.5 µM
IC50 [2]: > 30 µM
EC50 [2]: 25.6 µM
IC50 (MM1.S, cell line MM1-S): > 30 µM
EC50 (MOLM-13, MOLM-13 (haematopoietic_and_lymphoid_tissue)): 13.1 µM
IC50 [3]: 13.4 µM
EC50 [3]: 13.1 µM
IC50 [4]: 16.6 µM
EC50 [4]: 12.1 µM
IC50 (MOLP-8, cell line MOLP-8): 16.6 µM
IC50 [5]: 23.3 µM
EC50 [5]: 23.3 µM
IC50 [6]: 18.4 µM
EC50 [6]: 18.4 µM
IC50 (MSTO-211H, cell line MSTO-211H (pleura)): 27.7 µM
IC50 (MV4-11, MV-4-11 cells): 11.4 µM
EC50 (MV4-11, MV-4-11 cells): 11.4 µM
IC50 [7]: 11.4 µM
EC50 [7]: 11.4 µM
IC50 (Malme-3M, Malme-3M (skin)): > 30 µM
IC50 (Malme-3M, Malme-3M cells): > 30 µM
IC50 (Maver1, MAVER-1 (haematopoietic_and_lymphoid_tissue)): 13.2 µM
IC50 (MeWo, cell line MeWo (skin)): 26.2 µM
EC50 (MeWo, cell line MeWo (skin)): 22.6 µM
IC50 (NALM-6, cell line NALM-6 (haematopoietic_and_lymphoid_tissue)): 11.8 µM
IC50 (NCI-H28, NCI-H28, pleura, NS): 11.9 µM
EC50 (NCI-H28, NCI-H28, pleura, NS): 10.5 µM
IC50 [8]: 19.6 µM
EC50 [8]: 19.6 µM
IC50 (NCI-H82, NCI-H82 cells): 19.6 µM
EC50 (NCI-H82, NCI-H82 cells): 19.6 µM
IC50 (NCI-H146, NCI-H146 cells): > 30 µM
IC50 (NCI-H146, cell line NCI-H146 (lung)): > 30 µM
IC50 (NCI-H226, NCI-H226, lung, squamous_cell_carcinoma): > 30 µM
IC50 (NCI-H226, cell line NCI-H226): > 30 µM
IC50 (NCI-H358, NCI-H358, lung, bronchioloalveolar_adenocarcinoma): 22.8 µM
IC50 [9]: > 30 µM
EC50 [9]: 12.7 µM
IC50 (NCI-H441, cell line NCI-H441): > 30 µM
IC50 (NCI-H460, NCI-H460, lung, large_cell_carcinoma): > 30 µM
IC50 (NCI-H460, cell line NCI-H460): > 30 µM
IC50 (NCI-H520, NCI-H520, lung, squamous_cell_carcinoma): > 30 µM
IC50 (NCI-H520, NCI-H520 cells): > 30 µM
IC50 (NCI-H596, NCI-H596, lung, mixed_adenosquamous_carcinoma): > 30 µM
IC50 (NCI-H596, NCI-H596 cells): > 30 µM
IC50 [10]: 15 µM
EC50 [10]: 15 µM
IC50 [11]: 15.8 µM
EC50 [11]: 15.8 µM
IC50 (NCI-H650, NCI-H650 cells): 15.8 µM
EC50 (NCI-H650, NCI-H650 cells): 15.8 µM
IC50 (NCI-H661, NCI-H661, lung, large_cell_carcinoma): > 30 µM
IC50 (NCI-H661, NCI-H661 cells): > 30 µM
IC50 [12]: 29.8 µM
EC50 [12]: 21.4 µM
EC50 (NCI-H716, NCI-H716 cells): 21.4 µM
IC50 (NCI-H727, NCI-H727, lung, NS): > 30 µM
IC50 (NCI-H727, cell line NCI-H727): > 30 µM
IC50 [13]: 26.6 µM
EC50 [13]: 21.1 µM
IC50 (NCI-H838, NCI-H838, lung, adenocarcinoma): > 30 µM
IC50 (NCI-H838, NCI-H838 cells): > 30 µM
IC50 (NCI-H1048, cell line NCI-H1048 (lung)): 4.81 µM
IC50 [14]: > 30 µM
EC50 [14]: 3.48 µM
IC50 (NCI-H1092, cell line NCI-H1092): > 30 µM
IC50 [15]: 13 µM
EC50 [15]: 11.3 µM
IC50 (NCI-H1355, cell line NCI-H1355 (lung)): 10.7 µM
IC50 (NCI-H1437, NCI-H1437 cells): > 30 µM
IC50 (NCI-H1437, cell line NCI-H1437 (lung)): > 30 µM
IC50 [16]: > 30 µM
EC50 [16]: 9.9 µM
IC50 (NCI-H1563, cell line NCI-H1563): > 30 µM
IC50 (NCI-H1573, cell line NCI-H1573 (lung)): 1.5 µM
EC50 (NCI-H1581, NCI-H1581 cells): 15.4 µM
IC50 [17]: 14.7 µM
EC50 [17]: 15.4 µM
IC50 (NCI-H1623, cell line NCI-H1623 (lung)): > 30 µM
IC50 (NCI-H1623, cell line NCI-H1623): > 30 µM
IC50 (NCI-H1650, NCI-H1650 (lung)): 26.2 µM
IC50 (NCI-H1650, cell line NCI-H1650 (lung)): 26.2 µM
IC50 (NCI-H1651, NCI-H1651 cells): > 30 µM
IC50 (NCI-H1651, cell line NCI-H1651 (lung)): > 30 µM
